Measured values as given in EP0908457B1, “3-(1,2-benzisothiazol- and isoxazol-5-Y1)-2,4(1H,3H)-pyrimidinedione or thione and 3-(1,2-benzisothiazol- and isoxazol-5-y1)-4(3H)-pyrimidinone or thione herbicidal agents” (BASF AKTIENGESELLSCHAFT, priority 1997, dated 1999).

What was measured:
[1] = system: Oryza sativa, (L.) Tebonnet; assay: Rice tolerance to post-transplant applications under flooded paddy conditions (Example 187), ORYSAT (Rice, Tebonnet); conditions: rated three to four weeks after treatment
Sagittaria pygmaea, L. = assay: Preemergence weed control under flooded paddy conditions, SAGPY (Arrowhead (Pygmaea)); assay type: in vivo; conditions: flooded paddy, rated three to four weeks after treatment; note: meaning of each grade not given here
[2] = system: Echinochloa oryzoides (Ard.) Fritsch.; assay: Preemergence weed control under flooded paddy conditions, ECHORC (Watergrass (Calif.)); assay type: in vivo; conditions: flooded paddy, rated three to four weeks after treatment; note: meaning of each grade not given here
Cyperus iria = assay: Preemergence weed control under flooded paddy conditions, CYPIR (Rice Flatsedge); assay type: in vivo; conditions: flooded paddy, rated three to four weeks after treatment; note: meaning of each grade not given here
[3] = system: Monochoria vaginalis, Presl.; assay: Preemergence weed control under flooded paddy conditions, MOOVA (Monochoria); assay type: in vivo; conditions: flooded paddy, rated three to four weeks after treatment; note: meaning of each grade not given here
[4] = system: Cyperus serotinus, Rottb.; assay: Preemergence weed control under flooded paddy conditions, CYPSE (Flatsedge); assay type: in vivo; conditions: rated three to four weeks after treatment; note: meaning of each grade not given here
[5] = 0.0313 kg/ha, preemergence weeds
[6] = 0.0625 kg/ha, preemergence weeds
[7] = 0.1250 kg/ha, preemergence weeds
[8] = 0.2500 kg/ha, preemergence weeds
[9] = Rate 0.0320 kg/ha, preemergence weeds
[10] = Rate 0.0620 kg/ha, preemergence weeds
[11] = Rate 0.1250 kg/ha, preemergence weeds
[12] = Rate 0.2500 kg/ha, preemergence weeds

SMILES: Cc1noc2cc(F)c(-n3c(=O)cc(C(F)(F)F)n(C)c3=O)cc12 [Example 23, 3-(6-Fluoro-3-methyl-1,2-benzisoxazol-5-yl)-1-methyl-6-(trifluoromethyl)-2,4(1H,3H)-pyrimidinedione]
- herbicidal effect rating, ORYSAT (rice tolerance) ([1]; 0.0313 kg/ha): 5.5
- herbicidal effect rating, ORYSAT (rice tolerance) ([1]; 0.0625 kg/ha): 6.5
- herbicidal effect rating, ORYSAT (rice tolerance) ([1]; 0.1250 kg/ha): 8.0
- herbicidal effect rating, ORYSAT (rice tolerance) ([1]; 0.2500 kg/ha): 8.5
- herbicidal effect rating, SAGPY (Sagittaria pygmaea, L.; 0.0313 kg/ha, preemergence): 4.0
- herbicidal effect rating, SAGPY (Sagittaria pygmaea, L.; 0.0625 kg/ha, preemergence): 6.0
- herbicidal effect rating, SAGPY (Sagittaria pygmaea, L.; 0.1250 kg/ha, preemergence): 9.0
- herbicidal effect rating, SAGPY (Sagittaria pygmaea, L.; 0.2500 kg/ha, preemergence): 9.0
- herbicidal effect rating, ECHORC ([2]; 0.0313 kg/ha, preemergence): 4.5
- herbicidal effect rating, ECHORC ([2]; 0.0625 kg/ha, preemergence): 7.0
- herbicidal effect rating, ECHORC ([2]; 0.1250 kg/ha, preemergence): 8.5
- herbicidal effect rating, ECHORC ([2]; 0.2500 kg/ha, preemergence): 9.0
- herbicidal effect rating, CYPIR (Cyperus iria; 0.0313 kg/ha, preemergence): 7.0
- herbicidal effect rating, CYPIR (Cyperus iria; 0.0625 kg/ha, preemergence): 9.0
- herbicidal effect rating, CYPIR (Cyperus iria; 0.1250 kg/ha, preemergence): 9.0
- herbicidal effect rating, CYPIR (Cyperus iria; 0.2500 kg/ha, preemergence): 9.0
- herbicidal effect rating, MOOVA ([3]; 0.0313 kg/ha, preemergence): 9.0
- herbicidal effect rating, MOOVA ([3]; 0.0625 kg/ha, preemergence): 9.0
- herbicidal effect rating, MOOVA ([3]; 0.1250 kg/ha, preemergence): 9.0
- herbicidal effect rating, MOOVA ([3]; 0.2500 kg/ha, preemergence): 9.0
- herbicidal effect rating, CYPSE ([4]; 0.0313 kg/ha, preemergence): 4.0
- herbicidal effect rating, CYPSE ([4]; 0.0625 kg/ha, preemergence): 7.0
- herbicidal effect rating, CYPSE ([4]; 0.1250 kg/ha, preemergence): 8.0
- herbicidal effect rating, CYPSE ([4]; 0.2500 kg/ha, preemergence): 9.0

SMILES: COCC(C)OC(=O)COc1ccc(C)cc1-c1nsc2ccc(-n3c(=O)cc(C(F)(F)F)n(C)c3=O)cc12 (racemic) [Example 192, 1-Methyl-2-methoxyethyl {{2-{5-[3,6-dihydro-3-methyl-2,6-dioxo-4-(trifluoromethyl)-1(2H)-pyrimidinyl]-1,2-benzisothiazol-3-yl}-p-tolyl}oxy}acetate, DL-]
- herbicidal effect rating, ORYSAT (rice tolerance) ([1]; 0.0313 kg/ha): 1.0
- herbicidal effect rating, ORYSAT (rice tolerance) ([1]; 0.0625 kg/ha): 2.0
- herbicidal effect rating, ORYSAT (rice tolerance) ([1]; 0.1250 kg/ha): 3.0
- herbicidal effect rating, ORYSAT (rice tolerance) ([1]; 0.2500 kg/ha): 4.0
- herbicidal effect rating, SAGPY (Sagittaria pygmaea, L.; [5]): 0.0
- herbicidal effect rating, SAGPY (Sagittaria pygmaea, L.; [6]): 0.0
- herbicidal effect rating, SAGPY (Sagittaria pygmaea, L.; [7]): 2.0
- herbicidal effect rating, SAGPY (Sagittaria pygmaea, L.; [8]): 9.0
- herbicidal effect rating, ECHORC [2, 5]: 1.0
- herbicidal effect rating, ECHORC [2, 6]: 4.0
- herbicidal effect rating, ECHORC [2, 7]: 9.0
- herbicidal effect rating, ECHORC [2, 8]: 9.0
- herbicidal effect rating, CYPIR (Cyperus iria; [5]): 0.0
- herbicidal effect rating, CYPIR (Cyperus iria; [6]): 0.0
- herbicidal effect rating, CYPIR (Cyperus iria; [7]): 2.0
- herbicidal effect rating, CYPIR (Cyperus iria; [8]): 7.0
- herbicidal effect rating, MOOVA [3, 5]: 9.0
- herbicidal effect rating, MOOVA [3, 6]: 9.0
- herbicidal effect rating, MOOVA [3, 7]: 9.0
- herbicidal effect rating, MOOVA [3, 8]: 9.0
- herbicidal effect rating, CYPSE [4, 5]: 0.0
- herbicidal effect rating, CYPSE [4, 6]: 0.0
- herbicidal effect rating, CYPSE [4, 7]: 0.0

SMILES: COc1cccc(-c2nsc3ccc(-n4c(=O)cc(C(F)(F)F)n(C)c4=O)cc23)c1 [Example 301, 2,4(1H,3H)-Pyrimidinedione, 3-[3-(m-methoxyphenyl)-1,2-benzisothiazol-5-yl]-1-methyl-6-(trifluoromethyl)-]
- herbicidal effect rating ORYSAT ([1]; Rate 0.0320 kg/ha): 1.0
- herbicidal effect rating ORYSAT ([1]; Rate 0.0620 kg/ha): 1.0
- herbicidal effect rating ORYSAT ([1]; Rate 0.1250 kg/ha): 2.5
- herbicidal effect rating ORYSAT ([1]; Rate 0.2500 kg/ha): 3.5
- herbicidal effect rating, SAGPY (Sagittaria pygmaea, L.; [9]): 2.0
- herbicidal effect rating, SAGPY (Sagittaria pygmaea, L.; [10]): 4.5
- herbicidal effect rating, SAGPY (Sagittaria pygmaea, L.; [11]): 7.0
- herbicidal effect rating, SAGPY (Sagittaria pygmaea, L.; [12]): 8.5
- herbicidal effect rating, ECHORC [2, 9]: 9.0
- herbicidal effect rating, ECHORC [2, 10]: 9.0
- herbicidal effect rating, ECHORC [2, 11]: 9.0
- herbicidal effect rating, ECHORC [2, 12]: 9.0
- herbicidal effect rating, CYPIR (Cyperus iria; [9]): 9.0
- herbicidal effect rating, CYPIR (Cyperus iria; [10]): 9.0
- herbicidal effect rating, CYPIR (Cyperus iria; [11]): 9.0
- herbicidal effect rating, CYPIR (Cyperus iria; [12]): 9.0
- herbicidal effect rating, MOOVA [3, 9]: 9.0
- herbicidal effect rating, MOOVA [3, 10]: 9.0
- herbicidal effect rating, MOOVA [3, 11]: 9.0
- herbicidal effect rating, MOOVA [3, 12]: 9.0
- herbicidal effect rating, CYPSE [4, 9]: 9.0
- herbicidal effect rating, CYPSE [4, 10]: 9.0
- herbicidal effect rating, CYPSE [4, 11]: 9.0
- herbicidal effect rating, CYPSE [4, 12]: 9.0
